Measured values reported in patent US20150064328A1, “REBAUDIOSIDE C AND ITS STEREOISOMERS AS NATURAL PRODUCT SWEETNESS ENHANCERS” (Redpoint Bio Corporation, priority 2009, published 2015).
“Also recorded” adds a separate entry of the source.

Experiments:
[1] = Double-blind controlled sweetness intensity test, sequential monadic, sip and spit (Example 1 protocol); type: in vivo, human
From the text: As used herein, the term “sweetness intensity” refers to the relative strength of sweet sensation as observed or experienced by an individual, e.g., a human, or a degree or amount of sweetness detected by a taster, for example on the scale from 0 (none) to 8 (very strong) (see Example 1) used in sensory evaluations according to the procedure described in American Society for Testing Materials, Special Technical Publication-434: “Manual on Sensory Testing Methods,” ASTM International, West Conshohocken, Pa. (1996). The sweetness enhancing effect of 300 μM Reb C (Chromadex, CA; purity 94.9%; 2.9% impurities other than water) on 5% (w/v-%) sucrose solution was evaluated in a double-blind controlled test conducted according to the following protocol. Three products were evaluated by trained judges as follows: • high concentration sucrose (7% w/v) • low concentration sucrose (5% w/v) • low concentration sucrose+sweetness enhancer (test compound) The products were evaluated using a sequential monadic test protocol. Subjects were given three samples to evaluate. Each subject was directed to swirl the first sample in his or her mouth for 3-5 seconds, expectorate the entire sample into a discard cup, and then assess the sweetness intensity of the sample. The intensity was rated on a score card by marking a numerical value along a scale from 0 to 8 (e.g., 0-none, 2=slight, 4=definite, 8=very strong). Following the decision regarding the sweetness intensity, subjects were instructed to rinse their mouth with water and spit in the discard cup. Subjects then were given unsalted crackers to cleanse the palate. A period of 10 minutes elapsed between presentations of each sample to reduce the potential influence of residual taste effects. A second sample was then presented and evaluated as above and the same procedure was followed until all three products were evaluated. Sample presentation was randomized to avoid order of presentation bias. To participate in the sensory panel, judges or subjects were chosen from an expert taste panel. These subjects were screened for taste acuity and were trained in evaluating solutions using the sip and spit protocol and were trained in using a rating ballot. The number of judges who participated in the study was 20. The female subjects were all non-pregnant and all volunteers were of <55 years of age with no history of allergy to sucrose. Judges were asked to execute an informed consent form. Specifically, the following instructions were given to the judges: Please take a sip of water. Carefully take the cap off the sample cup placed in front of you. Sip, swirl for 3-5 seconds, and then spit the sample into the cup provided, then assess the intensity of the sweetness of the sample. Please evaluate the sample for the intensity of the sweet flavor and put a vertical mark on the number that best describes the intensity. Rinse your mouth with the water provided and spit into the discard cup. Use crackers provided to cleanse your palate before evaluating the next sample. If any other flavor was present in the sample please describe it. Please rinse your mouth again several times and have some more water and unsalted crackers. You will now have a rest period of 10 minutes before you will be given the next sample.

[2] = Double-blind controlled sweetness intensity test, sequential monadic, taste and swallow (Example 6 protocol); type: in vivo, human
[3] = Forced-choice taste test of Reb C water solution versus water; type: in vivo, human; conditions: 250 μM Reb C water solution
Method: The taste of a 250 μM Reb C solution was evaluated by a test group having five (5) subjects as follows (Forced-choice): Subjects were presented with 2 cups, each containing 10 ml of either 250 μM Reb C water solution or water (room temperature). […] Subjects were asked to sip most or all of the 10 ml from the first cup, swish the liquid in their oral cavity, and expectorate into a cup, then rinse their mouths vigorously with water. Soon thereafter, the contents of the second cup were sampled in the same manner. Then, subjects were asked to choose the sweeter of the two samples, or if not sweet, to describe the qualitative taste profile of the sample having a detectable taste.

[4] = Open qualitative taste report of Reb C water solutions; type: in vivo, human; conditions: 250 and 300 μM Reb C in water; all 4 subjects gave the same description
Method: The taste of 250 μM and 300 μM Reb C solutions were evaluated as follows by another test group having four (4) subjects as follows: 10 ml solutions of 250 and 300 μM Reb C in water were sampled by four subjects who were asked to report their qualitative taste experience of the solutions.

[5] = Quantitative taste profile by trained panel (sweet, bitter, salt, sour, licorice); type: in vivo, human
Method: The taste of 150, 300, and 600 μM Reb C was evaluated by a test group. 10 panelists were trained over a period of a few weeks to provide a quantitative flavor profile of Reb C. Panelists first were trained using standard tastants representing the different taste modalities given in FIG. 7 (i.e., sweet, bitter, salt, sour, and licorice). They then were trained to use the scales when flavors were mixed together. All intensity ratings are on scales ranging from 0 (no taste) to 8 (highest intensity). The intensity rating for sweet is essentially the same as used in Examples 1 and 6. The taste profiles were obtained for 150, 300, and 600 μM Reb C. Reb A (0.2 mg/ml, a concentration used in some food/beverage applications for sweetening) was also evaluated in the test for comparison. The scale is not linear at the bottom. A rating of 1 is around the threshold for sweetness detection.

[6] = cited from earlier work
[7] = 300 μM Reb C in 8% (w/v-%) fructose solution, FIG. 16
[8] = sweetness intensities equivalent to 3% (w/v-%) sucrose
[9] = sweetness intensities equivalent to 7% (w/v-%) sucrose

C=C1C[C@@]23CC[C@H]4[C@@](C)(CCC[C@@]4(C)C(=O)O[C@@H]4O[C@H](CO)[C@@H](O)[C@H](O)[C@H]4O)[C@@H]2CC[C@]1(O[C@@H]1O[C@H](CO)[C@@H](O)[C@H](O[C@@H]2O[C@H](CO)[C@@H](O)[C@H](O)[C@H]2O)[C@H]1O[C@@H]1O[C@@H](C)[C@H](O)[C@@H](O)[C@H]1O)C3 [Reb C, Rebaudioside C]
sweetness of sucrose solution in combination with Reb C ([1]; 150 μM Reb C in 8% (w/v-%) sucrose solution, FIG. 4): between that of the 8% (w/v-%) sucrose solution and that of an 11% (w/v-%) sucrose solution | sweetness of fructose solution in combination with Reb C ([1]; 300 μM Reb C in 5% (w/v-%) fructose solution, FIG. 2): close to that of a 7% (w/v-%) fructose solution | sweetness of sucrose solution in combination with Reb C ([1]; 300 μM Reb C in 5% (w/v-%) sucrose solution, 20 judges, scale 0 to 8, FIG. 1): indistinguishable from that of a 7% (w/v-%) sucrose solution | sweetness of sucrose solution in combination with Reb C ([1]; 300 μM Reb C in 8% (w/v-%) sucrose solution, FIG. 3): close to that of an 11% (w/v-%) sucrose solution | mean sweetness intensity score ([1]; 8% (w/v-%) sucrose solution with 150 μM Reb C, scale 0 to 8, 8% sucrose solution alone scored 5.30): 6.10 | statistical significance of the effect of Reb C [2, 7]: not statistically significant | sweetness of fructose solution in combination with Reb C [2, 7]: between that of the 8% (w/v-%) fructose solution and that of an 11% (w/v-%) fructose solution | sweetness of iced tea with sucrose in combination with Reb C ([2]; 300 μM Reb C in iced tea with 8% (w/v-%) sucrose, FIG. 6): between that of the 8% (w/v-%) sucrose solution and that of an 11% (w/v-%) sucrose solution | sweetness of iced tea with HFCS55 in combination with Reb C ([2]; 300 μM Reb C in iced tea with 10.39% (w/v-%) HFCS55, 20 judges, FIG. 5): indistinguishable from that of a 14.29% (w/v-%) HFCS55 (HFCS) solution | sweetness intensity of cola beverage with HFCS55 in combination with Reb C ([2]; 190 ppm Reb C, 10.39% (w/v-%) HFCS55, buffered with citric acid, pH 2.7-2.8, FIG. 10): significantly increases the sweetness intensity to that of 14.29% HFCS55 | sweetness of cola beverage with HFCS55 in combination with Reb C ([2]; 190 ppm Reb C, 10.39% (w/v-%) HFCS55, buffered with phosphoric acid, FIG. 14): not higher than that of 10.39% (w/v-%) HFCS55 cola beverage alone | sweetness of lemon-lime soda with HFCS55 in combination with Reb C ([2]; 190 ppm Reb C, 10.39% (w/v-%) HFCS55, citric acid 0.15%, pH 2.6-2.7, FIG. 12): did not reach the sweetness of a 14.29% (w/v-%) HFCS55 solution | sweetness of erythritol solution in combination with Reb C ([2]; 285 ppm (300 μM) Reb C in 7.14% erythritol solution, equivalent to 5% (w/v-%) sucrose, FIG. 9): significantly sweeter than the 7.14% erythritol solution alone, but did not achieve the sweetness of a 10% erythritol solution | sweetness intensity of cola beverage with HFCS55 in combination with Reb C ([2]; 310 ppm Reb C, 10.39% (w/v-%) HFCS55, buffered with phosphoric acid, FIG. 15): increased significantly the sweetness intensity of a cola beverage containing 10.39% (w/v-%) HFCS55, but did not reach the sweetness of a 14.29% (w/v-%) HFCS55 cola beverage | sweetness of unsweetened cola beverage with Reb C ([2]; concentrations 190 ppm or below (95, 190 and 285 ppm tested), FIG. 11): does not increase the sweetness of an unsweetened cola beverage | sweetness of unsweetened lemon-lime soda with Reb C ([2]; control group of Example 11, concentrations 190 ppm or below (95, 190 and 285 ppm tested)): does not increase the sweetness of an unsweetened cola beverage | identification of the sample containing Reb C versus water ([3]; 5 subjects, forced-choice): All subjects correctly identified the sample containing Reb C | qualitative taste description, one per subject ([3]; subjects 1 to 5): Metallic, not sweet; also recorded: Aversive (“Nasty”); also recorded: Slight sweet, astringent; also recorded: Faintly sweet; also recorded: Slight sweet/licorice | qualitative taste description [4]: Both concentrations bitter and/or licorice | unpleasant tastes, bitter and licorice ([5]; 150, 300 and 600 μM Reb C alone, FIG. 7): barely detected | intrinsic sweetness ([5]; 150, 300 and 600 μM Reb C, 10 panelists, scale 0 to 8, FIG. 7): little or no intrinsic sweetness | unpleasant tastes, bitter and licorice, when combined with sugar ([5]; Reb C combined with sugar): undetected

C=C1C[C@@]23CC[C@H]4[C@@](C)(CCC[C@@]4(C)C(=O)O[C@@H]4O[C@H](CO)[C@@H](O)[C@H](O)[C@H]4O)[C@@H]2CC[C@]1(O[C@@H]1O[C@H](CO)[C@@H](O)[C@H](O[C@@H]2O[C@H](CO)[C@@H](O)[C@H](O)[C@H]2O)[C@H]1O[C@@H]1O[C@H](CO)[C@@H](O)[C@H](O)[C@H]1O)C3 [rebaudioside A]
effect in mixtures with fructose and glucose [6, 8]: additive effect | effect in mixtures with sucrose [6, 8]: synergistic effect | effect in mixtures with fructose, glucose and sucrose ([6]; sweetness intensities equivalent to 5% (w/v-%)): additive effect | effect with a mixture with sucrose [6, 9]: additive effect | effect with mixtures with glucose and fructose [6, 9]: suppressive effect

OC[C@H]1O[C@@](CO)(O[C@H]2O[C@H](CO)[C@@H](O)[C@H](O)[C@H]2O)[C@@H](O)[C@@H]1O [sucrose, α-D-glucopyranosyl-(1->2)-β-D-fructofuranose, reference compound]
mean sweetness intensity score ([1]; 11% (w/v-%) sucrose solution, high concentration comparator, scale 0 to 8): 6.95
